In brackets after ≈: the same amount, converted by molar mass.

The conditions of this data set: buffer; pH 7.4; 200.0 µM.
With `C/C(=N/NC(=O)CN1CCN(Cc2ccccc2Cl)CC1)c1cccnc1`, the solubility (kinetic) (in general, the concentration staying in solution when a stock, usually in DMSO, is diluted into the medium) was greater than 0.0579 mg/mL.

With `O=C(N[C@@H](Cc1ccccc1)C(=O)NC1CC1)c1ccc(Cl)cc1`, the solubility (kinetic) worked out at 0.0068 mg/mL (≈ 19.8 µM).

Take `COc1cccc(/C=C/C(=O)OCC(=O)NCCCc2ccccc2)c1OC`: the kinetic solubility was 0.0056 mg/mL (≈ 14.6 µM).

As to `CCOC(=O)c1c(C)[nH]c(C(=O)C(C)N2CCCC2)c1C` (configuration not stated), the kinetic solubility came to 0.037 mg/mL (≈ 127 µM).

Molecule `COc1ccc(OC)c(S(=O)(=O)n2ccnc2C(C)C)c1` registered a solubility (kinetic) of 0.0461 mg/mL (≈ 149 µM).

Regarding `CCC(Sc1nc(C)cc(C)n1)C(=O)Nc1nccs1` (configuration not stated), the kinetic solubility worked out at 0.0431 mg/mL (≈ 140 µM).

On to `O=C(NCc1ccccc1Cl)c1cc(=O)[nH]c2ccccc12`, for which the kinetic solubility was determined as 0.0074 mg/mL (≈ 23.7 µM).

The molecule `O=C(NCCc1ccc(Cl)cc1)C1COc2ccccc2O1` (configuration not stated) came in with a solubility (kinetic) of 0.0055 mg/mL (≈ 17.3 µM).

Regarding `CCc1ccc(S(=O)(=O)NC2CCCCNC2=O)cc1` (configuration not stated), the kinetic solubility is greater than 0.0445 mg/mL.

For the molecule `COc1ccc(NC(=O)NC(=O)c2ccccc2)cc1`, the solubility (kinetic) amounted to 0.0013 mg/mL (≈ 4.81 µM).

The molecule `COc1ccc(C(=O)Nc2ccc(-c3n[nH]c(=S)o3)cc2)cc1` gave a kinetic solubility greater than 0.0491 mg/mL.

For the molecule `COc1ccc(S(=O)(=O)N2CCN(C(=O)CC(C)C)CC2)cc1`, the solubility (kinetic) is greater than 0.0511 mg/mL.

As to `CC(=O)N1CCN(c2ccc(NC(=O)c3ccco3)cc2)CC1`, the kinetic solubility is greater than 0.047 mg/mL.

In turn, `O=C(/C=C/c1ccc([N+](=O)[O-])cc1)OCC(=O)N1CCCC1` yielded a kinetic solubility greater than 0.0456 mg/mL.

Consider `COc1ccc(OCC2NCCc3cc(OC)c(OC)cc32)cc1` (configuration not stated), for which the solubility (kinetic) worked out at 0.042 mg/mL (≈ 128 µM).

Turning to `CSc1ccc(C(=S)N2CCCC2)cc1`, the kinetic solubility amounted to 0.0296 mg/mL (≈ 125 µM).

For `Cc1ccc2c(c1)CCCN2C(=O)c1cc(C)on1`, the solubility (kinetic) is greater than 0.0384 mg/mL.

Turning to `COc1ccc(S(=O)(=O)NCc2ccccc2)cc1Br`, the kinetic solubility is 0.0043 mg/mL (≈ 12.1 µM).

Consider `O=C(COC(=O)c1cccs1)Nc1ccccc1C(F)(F)F`, for which the solubility (kinetic) is 0.0025 mg/mL (≈ 7.59 µM).

`OC1CCN(Cc2ccc3ccccc3c2)CC1`: the kinetic solubility was determined as 0.0266 mg/mL (≈ 110 µM).

Consider `CN1CCSc2ccc(C(=O)Nc3cccc(F)c3)cc21`, for which the solubility (kinetic) is 0.0014 mg/mL (≈ 4.63 µM).

On to `CSc1ncccc1C(=O)OCC(=O)c1cc(C)n(C)c1C`, for which the kinetic solubility was found to be 0.0039 mg/mL (≈ 12.2 µM). This solubility kinetic lies about 2.8-fold higher than the previous one.

For the molecule `O=C(O)c1ccc2ncsc2c1`, the solubility (kinetic) was greater than 0.0269 mg/mL.

The molecule `Cc1ccc(C(=O)NCC(=O)NC2CCCC2)cc1` came in with a kinetic solubility of 0.0304 mg/mL (≈ 117 µM).

Molecule `O=C1Nc2ccccc2SC1c1ccccc1` (configuration not stated) yielded a solubility (kinetic) of 0.0017 mg/mL (≈ 7.04 µM).

As to `COc1ccc2oc(=N)c(C(=O)NCc3ccccc3)cc2c1`, the solubility (kinetic) is 0.0031 mg/mL (≈ 10.1 µM).

`C/C(Nc1ccccc1C(F)(F)F)=C1/CCOC1=O` gave a solubility (kinetic) of 0.0187 mg/mL (≈ 68.9 µM). Against the preceding molecule, the solubility kinetic is about 6-fold higher.

In turn, `CC1(C)CC(=O)N(c2ccc(C#N)cc2)C(=O)C1` yielded a kinetic solubility greater than 0.0363 mg/mL.

`COc1ccc(/C=C/C(=O)NC2CCCCC2C)cc1` (configuration not stated) registered a kinetic solubility of 0.004 mg/mL (≈ 14.6 µM).

On to `CCCC(=O)Nc1ccc(C2C(=O)c3ccccc3C2=O)cc1`, for which the solubility (kinetic) is greater than 0.0461 mg/mL.

`Cc1cc(NC(=O)Nc2ccc(Cl)cc2)no1` gave a kinetic solubility of 0.0014 mg/mL (≈ 5.56 µM).

`O=C(CCNC(=O)c1ccco1)NCCc1c[nH]c2ccccc12` had a solubility (kinetic) of 0.0331 mg/mL (≈ 102 µM).

The molecule `CC(C)(C)C(O)(CC#CCN1CCCC1)c1ccccc1.Cl` (configuration not stated) registered a kinetic solubility greater than 0.0483 mg/mL.

As for `Cc1cc(S(=O)(=O)NCc2ccc3c(c2)OCO3)ccc1F`, the solubility (kinetic) turned out to be 0.0468 mg/mL (≈ 145 µM).

As to `CCc1cccc(C)c1NC(=O)CCNC(=O)c1cccc(C)c1`, the solubility (kinetic) is greater than 0.0487 mg/mL.

With `O=C(Nc1cccc(C(=O)NC2CCCCC2)c1)c1ccccc1`, the solubility (kinetic) is 0.0028 mg/mL (≈ 8.68 µM).

Molecule `CC1(C(=O)N2CCN(c3ccccc3)CC2)CC1(Cl)Cl` (configuration not stated) gave a solubility (kinetic) of 0.0468 mg/mL (≈ 149 µM).

Molecule `O=C(CN1C(=O)c2ccccc2S1(=O)=O)Nc1cccc(S(=O)(=O)N2CCOCC2)c1` displayed a kinetic solubility greater than 0.0698 mg/mL.

`O=C(Cn1c(=O)oc2ccc(Cl)cc21)Nc1ccon1` displayed a kinetic solubility of 0.0062 mg/mL (≈ 21.1 µM).

`Cc1c(-c2ccc(Cl)cc2)[n+](=O)c(-c2ccccc2)cn1[O-]` returned a solubility (kinetic) greater than 0.0469 mg/mL.

Regarding `CCc1cccc(OC2OC(CO)C(O)C(O)C2NC(C)=O)c1` (configuration not stated), the kinetic solubility is greater than 0.0488 mg/mL.

In the case of `Cc1ccc(C(=O)O)cc1N=Nc1c(O)[nH]c(=O)[nH]c1=O`, the kinetic solubility is greater than 0.0435 mg/mL.

On to `Cc1ccc(/C=C/C(=O)OCC(=O)NCc2cccs2)o1`, for which the solubility (kinetic) is 0.0218 mg/mL (≈ 71.4 µM).

Molecule `O=C(CCN1C(=O)S/C(=C\c2ccccc2)C1=O)N1CCCCC1` registered a kinetic solubility of 0.0206 mg/mL (≈ 59.8 µM).

For `CC(Sc1nncn1C)C(=O)Nc1ccc2ccccc2c1` (configuration not stated), the solubility (kinetic) was greater than 0.0469 mg/mL.

In turn, `CCN(c1ccccc1)c1nc(=O)c2cccnc2s1` returned a solubility (kinetic) greater than 0.0425 mg/mL.

`O=S(=O)(c1ccccc1)N1CCc2ccccc2C1` yielded a solubility (kinetic) of less than 0.0006 mg/mL.

Take `CCN(Cc1ccccc1)S(=O)(=O)c1ccc(F)cc1`: the solubility (kinetic) amounted to 0.0156 mg/mL (≈ 53.2 µM).

As to `COCCCNC(=O)C1CC(=O)N(CCc2ccc(F)cc2)C1` (configuration not stated), the solubility (kinetic) was greater than 0.0484 mg/mL.

Consider `Cc1ccccc1NC(=O)N1CCC(C(=O)c2ccc(F)cc2)CC1`, for which the kinetic solubility came to 0.0334 mg/mL (≈ 98.1 µM).

The molecule `O=C(CN1C(=O)C2CC=CCC2C1=O)N1CCN(S(=O)(=O)c2ccccc2)CC1` (configuration not stated) came in with a solubility (kinetic) greater than 0.0626 mg/mL.

Turning to `N#Cc1ccc2nc3c(nc2c1)CCCC3`, the kinetic solubility turned out to be 0.0302 mg/mL (≈ 144 µM).
